In US10736906B2, “Method to enhance tissue regeneration” (CHILDREN'S MEDICAL CENTER CORPORATION, priority 2006, dated 2020):

Columns and labels:
Type in all cases: in vivo
bone marrow = bone marrow recovery following 5-FU chemical injury in APCMin/+ mice; conditions: 1 mg/kg every 48 hrs, after 5-FU
Experimental: (§1) It has been hypothesized that wnt activation regulates HSC self-renewal and repopulation. Wnt activation is also thought to be involved in carcinogenesis, however, making the concept of direct enhancement of wnt signaling problematic. Whether regulation of wnt activity by prostaglandin can effectively modulate HSC homeostasis in the adult, was determined by observing hematopoietic recovery following irradiation in the zebrafish. […] APCMin/+ mice have elevated β-catenin levels due to loss of APC function in the destruction complex.

[1] = test system: stem and progenitor cell population; test: hematopoietic recovery following irradiation in the adult zebrafish (kidney marrow); conditions: ten days post irradiation; wnt8 induction 24-36 hours post irradiation
Experimental: as §1

liver tumor = test: zebrafish DMBA liver tumor model, ultrasound biomicroscopy
Description: Although zebrafish are a valuable vertebrate model to study carcinogenesis, noninvasive imaging remains challenging because adult fish are not transparent. Tumors can be readily detected in vivo, however, using high-resolution microscopic ultrasound. This technique facilitates tissue perfusion calculations, cellular aspirates, tumor progression analysis, and responses to treatment. Ultrasound biomicroscopy allows longitudinal studies of tumor development and real-time assessment of therapeutic effects in the zebrafish model. The visualization techniques employed herein are described by Goessling et al., 4(7) Nature Methods 551-53 (2007). […] Tumor occurrence was monitored over about five months. Tumors were identified by ultrasound biomicroscopy. The cancerous fish were then treated with indomethacin for twelve hours over night, every three days for one month, and the tumors visualized as described. Goessling et al., 2007. […] After one month of drug treatment, the fish appeared healthy, but were sacrificed to confirm the presence of cancer by histology. […] In another experiment, detailed in FIG. 10B and FIG. 10C, fish were treated every week for tumor prevention. Here, treatment with the carcinogen led to liver tumors in wild-type fish, and to twice as many tumors in APC+/− mutant fish.

COc1ccc2c(c1)c(CC(=O)O)c(C)n2C(=O)c1ccc(Cl)cc1 [indomethacin]
effect on the proliferative advantage (bone marrow recovery) in APCMin/+ mice (bone marrow): markedly diminished the proliferative advantage
effect on wnt8-induced 2.5-fold increase in stem and progenitor cell population [1]: significantly diminished
solid portion of the tumor, ultrasound (liver tumor; after six treatments): decreased in size
tumor size, ultrasound (liver tumor; after ten treatments): shrunk substantially
tumor size, ultrasound (liver tumor; after three treatments (12 h overnight every three days)): tumor size increased
liver tumor formation (prevention) (liver tumor; weekly treatment, wild-type and especially APC+/− fish): decreased tumor formation
